PubChem BioAssay (NCI)
Where “and” joins values, the source holds several entries; their conditions need not be identical. Equal entries are not always repeated.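 Each compound was tested at five concentrations against cells in 96-well plates for 48 hours. GI50 = concentration required for 50% inhibition of growth. TGI: total growth inhibition.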

What was measured:
Assay in all cases: NCI-60 cell line screen, 48 h
[1] = tested on: A498 renal
[2] = tested on: CAKI-1 renal
[3] = tested on: COLO 205 colon
[4] = tested on: DU-145 prostate
[5] = tested on: IGROV1 ovarian
[6] = tested on: K-562 leukemia
[7] = tested on: OVCAR-5 ovarian
[8] = tested on: PC-3 prostate
[9] = tested on: SF-539 CNS
[10] = tested on: T-47D breast

Compound | GI50 [1] | TGI [1] | GI50 [2] | TGI [2] | GI50 [3] | TGI [3] | GI50 [4] | TGI [4] | GI50 [5] | TGI [5] | GI50 [6] | TGI [6] | GI50 [7] | TGI [7] | GI50 [8] | TGI [8] | GI50 [9] | TGI [9] | GI50 [10] | TGI [10]
O=C(Nc1ccc(Cl)c(C(F)(F)F)c1)Nc1ccc(-c2cccnc2)cc1N1CCC(CO)CC1 | 1.26 µM | 4.42 µM | 2.32 µM | 16 µM | 1.65 µM | 3.18 µM | 3.74 µM | > 100 µM | 3.48 µM | > 100 µM | 3.3 µM | > 100 µM | 2.96 µM | > 100 µM | 1.87 µM | 5.37 µM | 2.29 µM | 5.84 µM | 2.09 µM | 7.76 µM
COc1ccc(OC)c(N2CC(O)=C(c3nc4ccccc4s3)C2=N)c1 | 18.9 µM | 59.6 µM | 76.6 µM | > 100 µM | 47.3 µM | > 100 µM | > 100 µM | > 100 µM | 33.1 µM | > 100 µM | 23.6 µM | > 100 µM | > 100 µM | > 100 µM | 52.5 µM | > 100 µM | 83.8 µM | > 100 µM | > 100 µM | > 100 µM
Nc1nc(Sc2ccc([N+](=O)[O-])c3nonc23)c2ncn(C3OC(CO)C(O)C3O)c2n1 (stereo not given) | 2.28 µM | 14 µM | 0.669 µM | > 100 µM | 2.59 µM | 14.4 µM | 0.554 µM | 27.3 µM | 2.58 µM | 24.2 µM | 0.279 µM | > 90.5 µM | 1.07 µM | 13.1 µM | 3.24 µM | 26.6 µM | 0.738 µM | > 37.2 µM | 1.07 µM | > 49.5 µM
Cc1nnn(C)c1-c1cnc2c3ccc(C(C)(C)O)cc3n([C@H](c3ccccc3)C3CCOCC3)c2c1 | < 0.0381 µM | 0.581 µM | < 0.01 µM | 13.2 µM | < 0.01 µM | 30.1 µM | 11.2 µM | > 100 µM | < 0.02 µM | > 79.3 µM | < 0.01 µM | > 100 µM | 0.0907 µM | > 100 µM | 0.765 µM | > 100 µM | < 0.0182 µM | 51.1 µM | 0.0104 µM | > 100 µM
COC(=O)[C@H](Cc1cn(C)cn1)NC(=O)[C@H](CC(C)C)NC(=O)Nc1cc(C(F)(F)F)cc(C(F)(F)F)c1 | > 10 µM | > 10 µM | > 10 µM | > 10 µM | > 10 µM | > 10 µM | > 10 µM | > 10 µM | 4.63 µM | > 10 µM | 6.41 µM | > 10 µM | > 10 µM | > 10 µM | 4.64 µM | > 10 µM | > 10 µM | > 10 µM | 6.56 µM | > 10 µM
COc1cc(-n2cc(-c3ccc(Cl)cc3)n(-c3ccccc3)c2=O)cc(OC)c1OC | 15.1 µM | 74.5 µM | 26.8 µM | > 89.9 µM | 11.7 µM | 44.2 µM | 43.6 µM | > 100 µM | 7.87 µM | 36.2 µM | 13.6 µM | > 100 µM | 39.4 µM | > 100 µM | > 37.7 µM | > 100 µM | 27.1 µM | > 100 µM | 8.01 µM | 74 µM
CCn1nc(C2CCN(C(=O)CCO)CC2)nc1-c1cnc(N)c(-c2nnc(C(C)(C)C)o2)n1 | 0.617 µM | 5.12 µM | 3.35 µM | > 96.6 µM | 2.85 µM | 21.5 µM | 16.7 µM | > 100 µM | 0.245 µM | > 100 µM | 27.8 µM | > 100 µM | 3.17 µM | > 100 µM | 3.2 µM | > 100 µM | 5.74 µM | > 100 µM | 0.0731 µM | 0.57 µM
CCc1cc2c(c(OCC(F)(F)F)c(C(=O)NC3CCN(C(=O)CO)CC3)n2C)c(=O)n1CC(=O)c1ccccc1 | 99.3 µM | > 100 µM | > 60.3 µM | > 100 µM | > 100 µM | > 100 µM | > 100 µM | > 100 µM | > 80.5 µM | > 100 µM | 34.4 µM | > 100 µM | > 100 µM | > 100 µM | > 73.5 µM | > 100 µM | 36.5 µM | > 100 µM | > 65.9 µM | > 100 µM
CCCN(CCC)c1ccc(/C=N/NC(=O)c2cccnc2)c(C)c1 | 1.06 µM | 3.54 µM | 19.2 µM | 58.7 µM | 14.5 µM | 27.6 µM | 16.4 µM | 43.9 µM | 16 µM | 39.7 µM | 10.5 µM | 54.6 µM | 13.1 µM | 33.8 µM | 16.8 µM | 67.7 µM | 13.8 µM | 29.3 µM | 6.35 µM | 27.6 µM
ClCc1ccccc1Cn1cnc2nc(Cl)nc(Cl)c21 | 2.13 µM | 4.83 µM | 7.16 µM | 18.5 µM | 0.357 µM | > 100 µM | 0.548 µM | 1.33 µM | 1.78 µM | 3.47 µM | 0.239 µM | 2.95 µM | 1.71 µM | 3.65 µM | 0.323 µM | 1.81 µM | 0.639 µM | 1.29 µM | 0.59 µM | 5.24 µM
CC(=O)O[C@@H]1c2c(c3c(=O)c4cccc(O)c4c(=O)c=3c2=[N+]=[N-])[C@H](OC(C)=O)[C@@H](OC(C)=O)[C@]1(C)O | 1.34 µM | 1.82 µM and 3.02 µM | 0.182 µM | 1.04 µM and 0.374 µM | 0.605 µM and 0.16 µM | 1.29 µM and 0.296 µM | 0.295 µM | 1.05 µM and 1.17 µM | 0.3 µM | 0.987 µM and 1.15 µM | 0.0909 µM | 3.1 µM and 0.444 µM | 0.613 µM | 1.23 µM and 1.35 µM | 0.236 µM | 1.14 µM and 1 µM | 0.162 µM | 1.14 µM and 0.316 µM | 0.132 µM and 0.317 µM | 0.649 µM and 1.39 µM
Oc1ccc(N=Nc2ccc(Br)cc2)c(O)c1 | 3.26 µM | 20.7 µM | 4 µM | 21 µM | 17.8 µM | 48.9 µM | 3.43 µM | 17.9 µM | 2.81 µM | 16.7 µM | 1.31 µM | 3.75 µM | 5.75 µM | 75.5 µM | 3.08 µM | 21.7 µM | 1.93 µM | 5.14 µM | 2.93 µM | 42.3 µM
